Source: patent US6624190B2, “2-acylamino-2-deoxy-glucono-1,5-lactones, a method for the production thereof, compositions containing them, and uses thereof” (Universite Pierre et Marie Curie (Paris VI), priority 1998, dated 2003)

Columns and labels:
[1] = Determination of critical micellar concentration by surface tension (Wilhelmy plate method); assay type: physicochemical
Protocol: The surface tension γ of a liquid in contact with air was measured at 25° C. by the Wilhelmy plate method (Prolabo TENSIMAT n3 tensometer). This consisted of plunging a vertical platinum strip (19.54 mm long) into a liquid then gradually withdrawing it, monitoring the tension exerted on the strip by the liquid film. The maximum value recorded before complete detachment of the strip represented the surface tension, expressed in mN/m. After calibrating the apparatus (calibration at two points: the zero value with the strip in air and a value of 50.2 mN/m with the strip tested with a weight of 200 mg), the surface tensions of solutions containing increasing quantities of the surfactant were recorded (measurements repeated three times). The critical micellar concentration was obtained from conventional graphs of γ=f(logC) where C represents the concentration in mol/l.
The change in surface tension γ (in mN/m) of an aqueous solution (volume=10 ml) was monitored as a function of the quantities of dissolved product (C, in Mol/l) (A=C(O)C7H15 and R2=CH3). The critical micellar concentration corresponds to the concentration above which the surface tension becomes a constant.

chicken lysozyme = biological target: T1, chicken lysozyme (Gallus gallus, UniProt P00698); assay: Lysozyme inhibition, Micrococcus lysodeikticus walls substrate; assay type: biochemical
T1 construct: purchased Sigma L-6876
Protocol: The enzyme studied was 0.5 g/l chicken lysozyme (Sigma, L-6876) in a 100 mM, pH 6.5 phosphate buffer and the substrate was constituted by 17 mg/100 ml of Micrococcus lysodeikticus walls in suspension in the same buffer.
Protocol: 100 μl of enzymatic solution was diluted with 400 μl of inhibitor solution. This was left at ambient temperature for 5 or 10 minutes. 40 μl of mixture was added to 3 ml of the substrate suspension in a spectrophotometer cell. The optical density was recorded at 450 nm every 10 seconds for 3 minutes.

[2] = system: bovine kidney β—N-acetyl glucosaminidase (EC 3.2.1.52); assay: N-acetyl glucosaminidase (NaGase) enzymatic inhibition, pNphNAG substrate; assay type: biochemical
Protocol: The enzyme used as a reference was bovine kidney β—N-acetyl glucosaminidase (EC 3.2.1.52) (Sigma A-2415) and its substrate was p-nitrophenyl 2-acetamido-2-deoxy glucopyranoside (Acros 22941-1000) (pNphNAG). The commercially available enzyme, in the form of a suspension in a 3.2 M solution of (NH4)2SO4, was centrifuged at 13000 rpm for 5 minutes and the residue was taken up in 1 ml of water. The solution obtained was the mother enzymatic solution.
Protocol: 100 μl of the enzymatic solution diluted to 1/10 was mixed with 100 μl of pH 4.2 citrate buffer and 300 μl of inhibitor solution (or water for the reference) and incubated at 37° C. for 5 minutes in a spectrophotometer cell. After adding 500 μl of substrate (5 mM or 2.5 mM), incubation was continued for 8 minutes at 37° C. and the optical density at 400 nm was monitored. The quantity of p-nitrophenol liberated by the enzymatic reaction was determined by correlating the optical density to a calibration curve (OD at 400 nm=f([p-nitrophenol])). The N-acetyl glucosaminidase activity unit was defined as the quantity of enzyme required to liberate one μmole of p-nitrophenol per minute under the conditions cited above.
I50 is defined as the concentration of compound capable of inhibiting 50% of the enzymatic activity under the assay conditions.
We colorimetrically monitored the quantities of p-nitrophenol liberated (in 10^−3 μmol/mn) by the action of N-acetyl glucosaminidase (NaGase) on pNphNAG (2.5 mM) in the presence of increasing quantities of (i) (concentration C in mM).
In order to determine the inhibition constant K1, we used Dixon's graphical method, which consisted of plotting the inverse of the initial velocity (1 Iv0) of the enzymatic reaction against the inhibitor concentration (C, in μM) for two different substrate concentrations. The abscissa of the intersection point of the two straight lines corresponds to —K1.

[3] = comparison values; cited from earlier work

T1 sequence (P00698 19-147): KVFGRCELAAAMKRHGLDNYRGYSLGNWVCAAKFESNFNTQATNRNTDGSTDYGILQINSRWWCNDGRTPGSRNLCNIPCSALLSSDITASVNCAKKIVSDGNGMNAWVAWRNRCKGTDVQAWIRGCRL

critical micellar concentration (CMC) ([1]; aqueous solution, 25° C.) [mM] | surface tension of water reduced to ([1]; reduction from 71 mN/m for concentrations of 0 to 25 mM (8.6 g/l)) [mN/m] | effect on lysozyme activity (chicken lysozyme; 0.1 mg/ml lysozyme, compound 1.8 mM) | affinity for lysozyme (chicken lysozyme; summary) | nature of inhibition ([2]; Dixon diagram) | Ki ([2]; Dixon's graphical method, substrate 2.5 mM and 5 mM, read-out: inhibition constant K1) [µM] | IC50 ([2]; pNphNAG 2.5 mM, pH 4.2 citrate buffer, 37° C., read-out: I50) [µM] | SMILES | critical micellar concentration (CMC) of commercially available glycosylated surfactants [3] [mM]
25 | 30 | No difference was detected | no affinity | competitive | ~3 | ~7 | CCCCCCCC(=O)OC[C@H]1OC(=O)[C@H](NC(C)=O)[C@@H](O)[C@@H]1O [(i), 2-acetamido-2-deoxy-6—O-octanoyl-glucono-1,5-lactone] | –
– | – | – | – | – | – | – | CCCCCCCNC(=O)OC[C@H]1O[C@H](OC)[C@H](O)[C@@H](O)[C@@H]1O [HECAMEG] | 22
– | – | – | – | – | – | – | CCCCCCCCO[C@@H]1O[C@H](CO)[C@@H](O)[C@H](O)[C@H]1O [octyl glucoside, n-octyl glucoside] | 18
